From US20120035155A1, “INDOLE-2-CARBOXAMIDE DEIVATIVE” (MSD K.K., priority 2009, published 2012)

Target: T1, human QRFP receptor (GPR103) (Homo sapiens, UniProt Q96P65)
T1 construct: expressed in transfected cells; host or cells: CHO-K1 NFAT β-Lactamase (Aurora); membrane sample
T1 sequence (Q96P65 1-431): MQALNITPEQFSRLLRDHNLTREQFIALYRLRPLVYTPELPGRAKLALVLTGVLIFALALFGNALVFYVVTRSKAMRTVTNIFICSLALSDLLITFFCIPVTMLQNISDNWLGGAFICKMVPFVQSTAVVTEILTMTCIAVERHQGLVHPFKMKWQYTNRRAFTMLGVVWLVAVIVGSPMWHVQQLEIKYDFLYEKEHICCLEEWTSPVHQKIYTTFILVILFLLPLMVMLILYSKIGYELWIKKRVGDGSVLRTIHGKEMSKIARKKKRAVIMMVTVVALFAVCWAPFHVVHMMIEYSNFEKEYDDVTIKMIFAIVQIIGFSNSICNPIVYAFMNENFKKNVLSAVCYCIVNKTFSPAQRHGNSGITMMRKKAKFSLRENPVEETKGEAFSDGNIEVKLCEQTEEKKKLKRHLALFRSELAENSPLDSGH
Test: QRFP43-Binding Inhibitory Test
Details: inhibition of specific [125I] QRFP43 binding; membrane sample of CHO-K1 NFAT β-Lactamase cells expressing GPR103; 25° C., 1 hour
Text: A cDNA sequence [Accession No. NM_198179] coding for a human QRFP receptor (GPR103) was cloned in an expression vector pEF1V5-H isB (by Invitrogen). The resulting expression vector was transfected in a host cell CHO-K1 NFAT β-Lactamase (by Aurora), according to a cationic lipid process [see Proceedings of the National Academy of Sciences of the United States of America, Vol. 84, p. 7413, 1987], thereby producing a QRFP receptor (GPR103).
A membrane sample prepared from the cells having expressed a QRFP receptor (GPR103) was incubated in an assay buffer (50 mM Tris-HCl, 1 mM EDTA and 0.1% BSA, pH 7.4) along with a test compound and 20,000 cpm [^125I] QRFP43 (by Perkin Elmer) therein, at 25° C. for 1 hour, and then filtered through a glass filter GF/C. After washed with 50 mM Tris-HCl (containing 2 mM EDTA, 10 mM MgCl2 and 0.04% Tween-20) buffer (pH 7.4), the radioactivity on the glass filter was determined. The non-specific binding was determined in the presence of 1 μM peptide QRFP43, and the 50% inhibitory concentration (IC50) of the test compound to the specific [^125I] QRFP43 binding was computed [see Endocrinology, Vol. 131, p. 2090, 1992].

SMILES	IC50
Cn1c(C(=O)NCc2ccc3c(c2)CCN(C2CCCC2)C3)cc2ccccc21 [Example 3, N-(2-cyclopentyl-1,2,3,4-tetrahydroisoquinolin-6-ylmethyl)-1-methyl-1H-indole-2-carboxamide]	45 nM
Cn1c(C(=O)NCc2ccc3c(c2)CCNC3)cc2ccccc21 [Example 1, 1-Methyl-N-(1,2,3,4-tetrahydroisoquinolin-6-ylmethyl)-1H-indole-2-carboxamide]	61 nM
CCN1CCc2cc(CNC(=O)c3cc4ccccc4n3C)ccc2C1 [Example 2, N-(2-ethyl-1,2,3,4-tetrahydroisoquinolin-6-ylmethyl)-1-methyl-1H-indole-2-carboxamide]	49 nM

Results, then the compound that gave them:

IC50	SMILES
19 nM	CNCc1ccc2c(c1)CCN(C(=O)c1cc3ccccc3n1C)C2 [Example 5, [6-Methylaminomethyl-3,4-dihydro-2(1H)isoquinolin-2-yl](1-methyl-1H-indol-2-yl)methanone]
43 nM	Cn1c(C(=O)N2CCc3cc(CN4CCC4)ccc3C2)cc2ccccc21 [Example 6, [6-(Azetidin-1-ylmethyl)-3,4-dihydro-2(1H)isoquinolin-2-yl](1-methyl-1H-indol-2-yl)methanone]
6.1 nM	CN(C)Cc1ccc2c(c1)CCN(C(=O)c1cc3cc(Cl)ccc3n1C)C2 [Example 7, [6-Dimethylaminomethyl-3,4-dihydro-2(1H)isoquinolin-2-yl](5-chloro-1-methyl-1H-indol-2-yl)methanone]
5.8 nM	CN(C)Cc1ccc2c(c1)CCN(C(=O)c1cc3ccccc3n1C)C2 [Example 4, [6-Dimethylaminomethyl-3,4-dihydro-2(1H)isoquinolin-2-yl](1-methyl-1H-indol-2-yl)methanone]
25 nM	CNCc1ccc2c(c1)CCN(C(=O)c1cc3cc(Cl)ccc3n1C)C2 [Example 8, [6-methylaminomethyl-3,4-dihydro-2(1H)isoquinolin-2-yl](5-chloro-1-methyl-1H-indol-2-yl)methanone]
